# Measured values taken from PubChem BioAssay (NCI).
#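 Growth conditions: 96-well plates. Treatment: test compound, 48 hours, 5 concentrations. Analysis: linear interpolation between bracketing concentrations; unreached endpoints set to highest concentration. TGI denotes the concentration required for complete inhibition of growth.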
# What was measured:
# Assay in all cases: NCI anticancer screen, dose series, 48 h
# SNB-78 CNS = test system: SNB-78 CNS
# DMS 114 small cell lung = test system: DMS 114 small cell lung
# M19-MEL melanoma = test system: M19-MEL melanoma
# RXF-631 renal = test system: RXF-631 renal
# HOP-18 NSCLC = test system: HOP-18 NSCLC
# LXFL 529 NSCLC = test system: LXFL 529 NSCLC
# MDA-N = test system: MDA-N
# XF 498 CNS = test system: XF 498 CNS
# KM20L2 colon = test system: KM20L2 colon
Structure (SMILES),TGI (SNB-78 CNS) [µM],TGI (DMS 114 small cell lung) [µM],TGI (M19-MEL melanoma) [µM],TGI (RXF-631 renal) [µM],TGI (HOP-18 NSCLC) [µM],TGI (LXFL 529 NSCLC) [µM],TGI (MDA-N) [µM],TGI (XF 498 CNS) [µM],TGI (KM20L2 colon) [µM]
O=C(Nc1c(-c2nc3ccccc3[nH]2)sc(=S)n1-c1ccccc1)c1ccccc1,> 100,> 100,> 100,> 100,> 100,> 100,,,
O=C1OC(c2ccc(O)c(-c3ccccc3)c2)(c2ccc(O)c(-c3ccccc3)c2)c2c(Cl)c(Cl)c(Cl)c(Cl)c21,,,,,,,> 100,,
Cn1c(CCC#N)nc2ccc(Br)cc2c1=O,,> 100,,> 100,,> 100,,> 100,> 100
COC(OC)c1cccc2c1C1(O)CCC3(CC21)OCCCCO3 (stereo not drawn),> 100,> 100,> 100,,> 100,> 100,,,> 100
Cc1ccccc1C(=O)Oc1ccc(Oc2ccccc2)cc1,> 100,> 100,> 100,,> 100,> 100,,> 100,> 100
Cc1ccc(C)c(NC(=O)c2cc(-c3ccc([N+](=O)[O-])cc3)nc(N)n2)c1,,> 100,> 100,,> 100,> 100,,> 100,> 100
Cc1ccc(NC(=O)/C(CC(=O)c2c[n+](=O)c3ccccc3n2O)=N\NC(=O)C[n+]2ccccc2)cc1,> 100,> 100,> 100,> 100,> 100,> 100,,> 100,> 100
O=C(O)/C(=C/c1ccccc1[N+](=O)[O-])c1ccccc1,> 100,> 100,> 100,> 100,,> 100,,> 100,> 100
CC(c1ccc(Br)cc1)C(C(=O)O)C(=O)O (stereo not drawn),> 100,> 100,> 100,,> 100,> 100,,,> 100
O=c1[nH]c(Br)nc2c(Br)c[nH]c12,> 100,> 100,> 100,> 100,> 100,> 100,,> 100,> 100
CC(C)C(=O)N[C@@H](C)C(=O)N(Cc1ccc2ccccc2c1)N=O,> 100,> 100,> 100,,0.0979,> 100,,> 100,> 100
CCCCCCCCCCCC(=O)OCC1OC(n2cc(F)c(=O)[nH]c2=O)C(N)C(OC(=O)CCCCCCCCCCC)C1O (stereo not drawn),> 100,> 100,> 100,,,> 100,,,> 100
CC(=O)OC12c3ccccc3C1CCCCCC21OCCCO1 (stereo not drawn),> 100,> 100,> 100,,,> 100,,,> 100
O=C(O)C1C2CC3C(OC(=O)C31)C2Br (stereo not drawn),,,,,,,> 100,,
O=Cc1ccc(-c2ccc(-c3ccc(C=O)s3)o2)s1,> 100,> 100,> 100,,> 100,0.324,> 100,,> 100
O=C1C=C(Nc2ccccc2C(=O)CC(=O)C(=O)Nc2cccc(C(F)(F)F)c2)c2ccccc2C1=O,> 100,35.1,8.48,> 100,40.6,71.5,26.7,48.7,> 100
COc1cc(OC)c2c(=O)c(O)c(-c3ccc(OC)c(OC)c3)oc2c1,,,,,,,> 100,,
N=C(c1ccccc1)N(O)C1CCCCC1,> 100,> 100,> 100,,> 100,> 100,,,> 100
COc1ccc(C(O)CNC(=O)c2ccccc2)cc1 (stereo not drawn),,,,,,,> 100,,
O=S1(=O)CCN(Cc2ccccn2)CC1,,,,,,,> 100,,
N=C(N)SCCc1cn2ccccc2n1,> 100,> 100,> 100,,> 100,,,> 100,
[Cu+2].[O-]c1ccc2ccccc2c1N=Nc1ccccc1.[O-]c1ccc2ccccc2c1N=Nc1ccccc1,,,,,,,> 100,,
O=C(OCCOCBr)c1ccccc1,> 100,> 100,,> 100,> 100,> 100,,,> 100
Nc1ccc(Nc2nc(F)nc(-c3c4ccccc4c4n3CCS4)n2)cc1,> 100,37.7,40.5,32.3,33.9,31.1,,20.3,33.5
